Results as given in paper PMC10746543, “Design principles for cyclin K molecular glue degraders” (Nature Chemical Biology, 2023).
“And” between values parts separate entries of the source, which are not always exact repeats. Identical values can stand only once. Like-named read-outs stand apart in the source and are kept apart here.

How the values were obtained:
CDK12 [1] = molecular target: CDK12; set-up: method as in PMID 30065029; conditions: read-out: CDK12 binding affinity; cited from earlier work
CDK12 [2] = molecular target: T1, CDK12 (Homo sapiens, UniProt Q16531+Q9NYV4); assay: Label-free quantitative mass spectrometry in MDA-MB-231 cells, CDK12; format: cell-based
T1 construct: endogenous in cells; host or cells: MDA-MB-231
T1 sequence (Q9NYV4 whole entry): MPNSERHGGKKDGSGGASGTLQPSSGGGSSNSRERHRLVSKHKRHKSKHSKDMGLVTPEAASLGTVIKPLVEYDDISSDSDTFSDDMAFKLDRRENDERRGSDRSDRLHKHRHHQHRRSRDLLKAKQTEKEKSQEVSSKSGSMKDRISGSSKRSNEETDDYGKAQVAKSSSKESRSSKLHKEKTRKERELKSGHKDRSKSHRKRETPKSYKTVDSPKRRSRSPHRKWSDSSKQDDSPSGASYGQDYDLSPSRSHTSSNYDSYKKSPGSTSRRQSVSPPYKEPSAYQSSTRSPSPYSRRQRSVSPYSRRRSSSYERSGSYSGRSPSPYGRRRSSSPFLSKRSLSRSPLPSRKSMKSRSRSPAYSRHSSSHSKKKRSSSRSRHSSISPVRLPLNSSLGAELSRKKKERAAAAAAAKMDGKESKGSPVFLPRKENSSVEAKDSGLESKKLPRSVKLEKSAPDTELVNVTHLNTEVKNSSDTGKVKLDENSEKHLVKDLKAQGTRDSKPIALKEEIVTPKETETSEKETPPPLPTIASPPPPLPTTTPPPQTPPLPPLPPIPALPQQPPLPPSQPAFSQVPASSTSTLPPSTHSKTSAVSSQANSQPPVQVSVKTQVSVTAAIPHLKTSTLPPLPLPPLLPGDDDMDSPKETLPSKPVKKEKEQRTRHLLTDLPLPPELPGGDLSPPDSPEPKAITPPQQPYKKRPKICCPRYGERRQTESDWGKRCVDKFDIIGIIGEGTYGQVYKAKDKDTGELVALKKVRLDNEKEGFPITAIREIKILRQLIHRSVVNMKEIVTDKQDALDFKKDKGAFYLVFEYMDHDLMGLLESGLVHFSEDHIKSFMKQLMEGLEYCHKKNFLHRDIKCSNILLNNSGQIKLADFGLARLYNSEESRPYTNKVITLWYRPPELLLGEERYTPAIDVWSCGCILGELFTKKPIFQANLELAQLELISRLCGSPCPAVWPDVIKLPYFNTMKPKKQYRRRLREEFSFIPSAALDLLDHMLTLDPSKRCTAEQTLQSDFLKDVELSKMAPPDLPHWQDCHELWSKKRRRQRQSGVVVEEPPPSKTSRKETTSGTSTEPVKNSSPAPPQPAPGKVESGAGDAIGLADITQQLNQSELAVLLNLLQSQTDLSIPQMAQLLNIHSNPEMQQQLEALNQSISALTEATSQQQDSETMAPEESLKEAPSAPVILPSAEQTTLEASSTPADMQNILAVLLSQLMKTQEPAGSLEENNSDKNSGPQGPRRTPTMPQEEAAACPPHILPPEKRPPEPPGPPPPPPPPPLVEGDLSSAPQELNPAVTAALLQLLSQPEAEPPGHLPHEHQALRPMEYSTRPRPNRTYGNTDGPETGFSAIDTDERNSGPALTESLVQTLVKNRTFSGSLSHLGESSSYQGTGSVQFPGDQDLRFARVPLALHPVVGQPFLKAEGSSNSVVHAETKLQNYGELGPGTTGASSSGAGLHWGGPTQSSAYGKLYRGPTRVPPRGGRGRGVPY
T1 sequence (O75909 whole entry partner): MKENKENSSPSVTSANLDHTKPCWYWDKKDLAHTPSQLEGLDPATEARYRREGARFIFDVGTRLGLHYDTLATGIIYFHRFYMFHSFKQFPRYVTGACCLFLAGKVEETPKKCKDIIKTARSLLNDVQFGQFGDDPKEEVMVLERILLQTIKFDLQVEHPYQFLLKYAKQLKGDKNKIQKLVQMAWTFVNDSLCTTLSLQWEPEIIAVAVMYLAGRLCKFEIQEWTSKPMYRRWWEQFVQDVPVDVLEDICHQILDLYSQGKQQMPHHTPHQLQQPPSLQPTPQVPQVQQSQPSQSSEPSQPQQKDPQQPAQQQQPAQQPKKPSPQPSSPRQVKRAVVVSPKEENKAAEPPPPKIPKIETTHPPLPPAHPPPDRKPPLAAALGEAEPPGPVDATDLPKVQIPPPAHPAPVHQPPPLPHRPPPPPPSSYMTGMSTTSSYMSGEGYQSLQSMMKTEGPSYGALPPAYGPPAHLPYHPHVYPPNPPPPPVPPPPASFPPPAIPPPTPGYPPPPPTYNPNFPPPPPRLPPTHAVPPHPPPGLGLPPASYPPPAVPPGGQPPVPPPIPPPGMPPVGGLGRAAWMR
T1 sequence (Q16531 2-1140 limits assumed): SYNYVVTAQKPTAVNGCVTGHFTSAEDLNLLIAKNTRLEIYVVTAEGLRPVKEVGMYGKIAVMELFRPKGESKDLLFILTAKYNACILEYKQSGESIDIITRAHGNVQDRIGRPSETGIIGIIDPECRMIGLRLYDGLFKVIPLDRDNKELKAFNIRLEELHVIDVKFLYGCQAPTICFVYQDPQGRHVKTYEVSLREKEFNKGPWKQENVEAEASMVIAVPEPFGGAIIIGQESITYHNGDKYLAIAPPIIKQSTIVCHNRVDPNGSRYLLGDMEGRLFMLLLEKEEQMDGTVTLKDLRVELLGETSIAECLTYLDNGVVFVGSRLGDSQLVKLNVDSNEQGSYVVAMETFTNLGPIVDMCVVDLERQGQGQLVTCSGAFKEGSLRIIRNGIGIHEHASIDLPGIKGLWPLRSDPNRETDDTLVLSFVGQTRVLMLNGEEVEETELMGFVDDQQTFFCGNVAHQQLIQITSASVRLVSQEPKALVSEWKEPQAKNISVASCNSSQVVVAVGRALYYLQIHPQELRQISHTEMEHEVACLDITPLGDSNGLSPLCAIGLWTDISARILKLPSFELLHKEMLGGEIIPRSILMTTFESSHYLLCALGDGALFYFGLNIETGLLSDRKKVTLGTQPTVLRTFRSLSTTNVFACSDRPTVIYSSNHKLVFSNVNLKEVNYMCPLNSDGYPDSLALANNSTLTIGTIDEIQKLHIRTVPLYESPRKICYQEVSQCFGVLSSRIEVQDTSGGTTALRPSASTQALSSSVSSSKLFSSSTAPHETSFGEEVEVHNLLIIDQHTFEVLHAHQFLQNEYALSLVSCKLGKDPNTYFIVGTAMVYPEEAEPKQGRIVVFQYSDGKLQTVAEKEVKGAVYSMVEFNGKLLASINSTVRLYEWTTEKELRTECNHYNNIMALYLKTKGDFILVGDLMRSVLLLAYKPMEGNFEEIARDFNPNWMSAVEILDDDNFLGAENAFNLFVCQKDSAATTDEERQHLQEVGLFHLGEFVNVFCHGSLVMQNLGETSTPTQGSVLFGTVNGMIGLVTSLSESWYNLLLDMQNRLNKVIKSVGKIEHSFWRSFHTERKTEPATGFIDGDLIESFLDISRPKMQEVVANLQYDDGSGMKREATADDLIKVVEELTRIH
Procedure, shortened: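 MDA-MB-231 cells treated 5 h with 1 µM cyclin K degrader or DMSO. Lysates digested with LysC and trypsin, then analysed by label-free diaPASEF LC-MS on a TimsTOF Pro2 with directDIA search and MS1 precursor quantification. Protein abundances scaled and analysed with limma.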

CDK2–cyclin A = molecular target: T2, CDK2–cyclin A (Homo sapiens, UniProt P24941); assay: Lanthascreen kinase binding assay, CDK2; conditions: for Lanthascreen signal, sheet CDK2: raw replicates
T2 construct: purchased Thermo Fisher
Experimental: Lanthascreen experiments were performed using commercially available reagents (Thermo Fisher) and according to the manufacturer’s instructions.

C[C@H](C(=O)Nc1nc2ccccc2[nH]1)N1Cc2ccccc2C1=O [compound 919278]
Kd (CDK12 [1]): 5.6 µM | CDK12 peptide count (CDK12 [2]; label-free quantitative MS, replicate values): 562.617 and 625.634 | CDK12 peptide count (DMSO-normalised) (CDK12 [2]; normalised to DMSO = 1, replicate values): 0.6251 and 0.6462 | Lanthascreen signal, sheet CDK2 (CDK2–cyclin A; Compound 0.038147 nM, experiment r13-r23): 0.01269 and 0.01352 | Lanthascreen signal, sheet CDK2 (CDK2–cyclin A; Compound 0.038147 nM, experiment r48-r58): 0.008606 and 0.009047 | Lanthascreen signal, sheet CDK2 (CDK2–cyclin A; Compound 0.038147 nM, experiment r60-r70): 0.02095 and 0.02064 and 0.01986 | Lanthascreen signal, sheet CDK2 (CDK2–cyclin A; Compound 0.152588 nM, experiment r13-r23): 0.01305 and 0.01362 | Lanthascreen signal, sheet CDK2 (CDK2–cyclin A; Compound 0.152588 nM, experiment r48-r58): 0.00965 and 0.01047 | Lanthascreen signal, sheet CDK2 (CDK2–cyclin A; Compound 0.152588 nM, experiment r60-r70): 0.02036 and 0.02142 and 0.02063 | Lanthascreen signal, sheet CDK2 (CDK2–cyclin A; Compound 0.610352 nM, experiment r13-r23): 0.01272 and 0.01276 | Lanthascreen signal, sheet CDK2 (CDK2–cyclin A; Compound 0.610352 nM, experiment r48-r58): 0.009379 and 0.009611 | Lanthascreen signal, sheet CDK2 (CDK2–cyclin A; Compound 0.610352 nM, experiment r60-r70): 0.02437 and 0.01852 and 0.0217 | Lanthascreen signal, sheet CDK2 (CDK2–cyclin A; Compound 9.76563 nM, experiment r13-r23): 0.0128 and 0.01342 | Lanthascreen signal, sheet CDK2 (CDK2–cyclin A; Compound 9.76563 nM, experiment r48-r58): 0.0095 and 0.01028 | Lanthascreen signal, sheet CDK2 (CDK2–cyclin A; Compound 9.76563 nM, experiment r60-r70): 0.02195 and 0.02182 and 0.02183 | Lanthascreen signal, sheet CDK2 (CDK2–cyclin A; Compound 39.0625 nM, experiment r13-r23): 0.01226 and 0.01223 | Lanthascreen signal, sheet CDK2 (CDK2–cyclin A; Compound 39.0625 nM, experiment r48-r58): 0.009849 and 0.009843 | Lanthascreen signal, sheet CDK2 (CDK2–cyclin A; Compound 39.0625 nM, experiment r60-r70): 0.02238 and 0.0202 and 0.02147 | Lanthascreen signal, sheet CDK2 (CDK2–cyclin A; Compound 156.25 nM, experiment r13-r23): 0.01136 and 0.01335 | Lanthascreen signal, sheet CDK2 (CDK2–cyclin A; Compound 156.25 nM, experiment r48-r58): 0.009932 and 0.01021 | Lanthascreen signal, sheet CDK2 (CDK2–cyclin A; Compound 156.25 nM, experiment r60-r70): 0.02199 and 0.02222 and 0.02099 | Lanthascreen signal, sheet CDK2 (CDK2–cyclin A; Compound 625 nM, experiment r13-r23): 0.01232 and 0.01317 | Lanthascreen signal, sheet CDK2 (CDK2–cyclin A; Compound 625 nM, experiment r48-r58): 0.009318 and 0.009813 | Lanthascreen signal, sheet CDK2 (CDK2–cyclin A; Compound 625 nM, experiment r60-r70): 0.02407 and 0.01928 and 0.02248 | Lanthascreen signal, sheet CDK2 (CDK2–cyclin A; Compound 2500 nM, experiment r13-r23): 0.0114 and 0.013 | Lanthascreen signal, sheet CDK2 (CDK2–cyclin A; Compound 2500 nM, experiment r48-r58): 0.009215 and 0.009737 | Lanthascreen signal, sheet CDK2 (CDK2–cyclin A; Compound 2500 nM, experiment r60-r70): 0.02278 and 0.02094 and 0.0202 | Lanthascreen signal, sheet CDK2 (CDK2–cyclin A; Compound 10000 nM, experiment r13-r23): 0.01075 and 0.01117 | Lanthascreen signal, sheet CDK2 (CDK2–cyclin A; Compound 10000 nM, experiment r48-r58): 0.008396 and 0.009419 | Lanthascreen signal, sheet CDK2 (CDK2–cyclin A; Compound 10000 nM, experiment r60-r70): 0.02054 and 0.0167 and 0.01885 | IC50 (CDK2–cyclin A; Lanthascreen, average, Extended Data Fig. 8, read-out: CDK2 IC50): > 10000 nM | IC50 (CDK2–cyclin A; Supplementary Table 2, read-out: Lanthascreen IC50 [nM] CDK2): > 10000 nM
